Assay results as given in ChEMBL document CHEMBL4382269, “Discovery of Potent, Efficient, and Selective Inhibitors of Phosphoinositide 3-Kinase δ through a Deconstruction and Regrowth Approach” (J Med Chem, 2018).
Converted amounts (≈) assume the structure as drawn. Each block holds one molecule with its values, some of them ahead of it.

Legend:
[1] = target: Phosphatidylinositol 4,5-bisphosphate 3-kinase catalytic subunit beta isoform (Homo sapiens, UniProt P42338); assay: Inhibition of PI3Kbeta (unknown origin) using PIP2 as substrate preincubated for 15 mins followed by substrate addition measured after 60 mins by HTRF method
Sequence of Phosphatidylinositol 4,5-bisphosphate 3-kinase catalytic subunit beta isoform (P42338 whole entry, canonical isoform): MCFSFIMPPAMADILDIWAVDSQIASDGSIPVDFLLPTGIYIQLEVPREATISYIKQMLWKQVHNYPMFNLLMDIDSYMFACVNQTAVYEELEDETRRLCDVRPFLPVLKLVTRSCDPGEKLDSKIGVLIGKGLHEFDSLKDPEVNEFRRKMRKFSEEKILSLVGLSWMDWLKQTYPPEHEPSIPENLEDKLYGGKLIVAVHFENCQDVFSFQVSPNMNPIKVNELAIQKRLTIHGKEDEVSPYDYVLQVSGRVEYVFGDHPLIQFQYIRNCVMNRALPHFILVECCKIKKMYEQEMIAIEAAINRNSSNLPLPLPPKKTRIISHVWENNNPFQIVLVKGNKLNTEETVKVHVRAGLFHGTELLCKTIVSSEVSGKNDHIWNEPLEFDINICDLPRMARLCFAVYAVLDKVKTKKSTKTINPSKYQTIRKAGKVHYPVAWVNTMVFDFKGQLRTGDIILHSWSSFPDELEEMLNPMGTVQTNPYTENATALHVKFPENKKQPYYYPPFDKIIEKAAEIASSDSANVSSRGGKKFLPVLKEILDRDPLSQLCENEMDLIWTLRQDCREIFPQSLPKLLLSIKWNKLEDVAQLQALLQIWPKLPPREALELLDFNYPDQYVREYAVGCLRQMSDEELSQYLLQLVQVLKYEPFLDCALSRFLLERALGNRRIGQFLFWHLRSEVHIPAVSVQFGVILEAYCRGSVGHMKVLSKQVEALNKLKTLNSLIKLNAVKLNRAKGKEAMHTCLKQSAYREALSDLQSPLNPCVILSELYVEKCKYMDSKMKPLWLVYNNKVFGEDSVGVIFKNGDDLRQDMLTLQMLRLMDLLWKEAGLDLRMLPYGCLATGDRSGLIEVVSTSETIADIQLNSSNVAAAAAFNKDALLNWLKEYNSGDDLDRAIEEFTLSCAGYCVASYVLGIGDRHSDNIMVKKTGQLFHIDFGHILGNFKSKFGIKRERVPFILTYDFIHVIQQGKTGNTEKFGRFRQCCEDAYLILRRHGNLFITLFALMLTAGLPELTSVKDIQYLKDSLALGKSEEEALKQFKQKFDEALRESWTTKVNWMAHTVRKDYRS

[2] = target: Phosphatidylinositol 4,5-bisphosphate 3-kinase catalytic subunit alpha isoform (Homo sapiens, UniProt P42336); assay: Inhibition of PI3Kalpha (unknown origin) using PIP2 as substrate preincubated for 15 mins followed by substrate addition measured after 60 mins by HTRF method
Sequence of Phosphatidylinositol 4,5-bisphosphate 3-kinase catalytic subunit alpha isoform (P42336 whole entry, canonical isoform): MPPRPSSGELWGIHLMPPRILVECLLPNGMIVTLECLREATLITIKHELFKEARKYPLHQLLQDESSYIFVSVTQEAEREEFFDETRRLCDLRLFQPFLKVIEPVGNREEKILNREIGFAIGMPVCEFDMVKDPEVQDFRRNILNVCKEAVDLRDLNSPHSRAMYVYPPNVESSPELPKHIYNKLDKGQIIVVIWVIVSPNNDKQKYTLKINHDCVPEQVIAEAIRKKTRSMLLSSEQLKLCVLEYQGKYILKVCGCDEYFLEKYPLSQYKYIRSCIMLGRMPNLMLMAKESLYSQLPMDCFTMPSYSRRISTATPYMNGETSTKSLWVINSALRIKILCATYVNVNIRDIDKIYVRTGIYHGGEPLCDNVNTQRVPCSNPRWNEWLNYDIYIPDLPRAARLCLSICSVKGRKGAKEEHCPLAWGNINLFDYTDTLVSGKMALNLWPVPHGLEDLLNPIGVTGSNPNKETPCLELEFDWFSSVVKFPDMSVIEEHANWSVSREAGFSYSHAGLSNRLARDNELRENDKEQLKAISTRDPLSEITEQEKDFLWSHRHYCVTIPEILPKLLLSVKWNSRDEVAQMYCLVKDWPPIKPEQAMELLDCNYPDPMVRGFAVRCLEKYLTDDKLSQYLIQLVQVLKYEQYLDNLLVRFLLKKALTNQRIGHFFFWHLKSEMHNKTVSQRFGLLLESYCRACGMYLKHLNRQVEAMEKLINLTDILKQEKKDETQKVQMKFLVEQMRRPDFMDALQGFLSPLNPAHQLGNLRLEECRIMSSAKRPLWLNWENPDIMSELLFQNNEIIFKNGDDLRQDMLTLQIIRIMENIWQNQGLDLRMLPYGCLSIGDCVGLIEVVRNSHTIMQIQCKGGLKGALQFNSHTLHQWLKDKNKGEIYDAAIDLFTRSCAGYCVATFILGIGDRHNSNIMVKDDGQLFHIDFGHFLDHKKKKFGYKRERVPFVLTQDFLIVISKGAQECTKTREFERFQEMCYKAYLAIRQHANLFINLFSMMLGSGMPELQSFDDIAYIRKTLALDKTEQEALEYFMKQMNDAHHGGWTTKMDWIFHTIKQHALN

[3] = target: T1, Phosphatidylinositol 4,5-bisphosphate 3-kinase catalytic subunit delta isoform (Homo sapiens, UniProt O00329); assay: Inhibition of PI3Kdelta (unknown origin) using PIP2 as substrate preincubated for 15 mins followed by substrate addition measured after 60 mins by HTRF method
T1 sequence (O00329 whole entry): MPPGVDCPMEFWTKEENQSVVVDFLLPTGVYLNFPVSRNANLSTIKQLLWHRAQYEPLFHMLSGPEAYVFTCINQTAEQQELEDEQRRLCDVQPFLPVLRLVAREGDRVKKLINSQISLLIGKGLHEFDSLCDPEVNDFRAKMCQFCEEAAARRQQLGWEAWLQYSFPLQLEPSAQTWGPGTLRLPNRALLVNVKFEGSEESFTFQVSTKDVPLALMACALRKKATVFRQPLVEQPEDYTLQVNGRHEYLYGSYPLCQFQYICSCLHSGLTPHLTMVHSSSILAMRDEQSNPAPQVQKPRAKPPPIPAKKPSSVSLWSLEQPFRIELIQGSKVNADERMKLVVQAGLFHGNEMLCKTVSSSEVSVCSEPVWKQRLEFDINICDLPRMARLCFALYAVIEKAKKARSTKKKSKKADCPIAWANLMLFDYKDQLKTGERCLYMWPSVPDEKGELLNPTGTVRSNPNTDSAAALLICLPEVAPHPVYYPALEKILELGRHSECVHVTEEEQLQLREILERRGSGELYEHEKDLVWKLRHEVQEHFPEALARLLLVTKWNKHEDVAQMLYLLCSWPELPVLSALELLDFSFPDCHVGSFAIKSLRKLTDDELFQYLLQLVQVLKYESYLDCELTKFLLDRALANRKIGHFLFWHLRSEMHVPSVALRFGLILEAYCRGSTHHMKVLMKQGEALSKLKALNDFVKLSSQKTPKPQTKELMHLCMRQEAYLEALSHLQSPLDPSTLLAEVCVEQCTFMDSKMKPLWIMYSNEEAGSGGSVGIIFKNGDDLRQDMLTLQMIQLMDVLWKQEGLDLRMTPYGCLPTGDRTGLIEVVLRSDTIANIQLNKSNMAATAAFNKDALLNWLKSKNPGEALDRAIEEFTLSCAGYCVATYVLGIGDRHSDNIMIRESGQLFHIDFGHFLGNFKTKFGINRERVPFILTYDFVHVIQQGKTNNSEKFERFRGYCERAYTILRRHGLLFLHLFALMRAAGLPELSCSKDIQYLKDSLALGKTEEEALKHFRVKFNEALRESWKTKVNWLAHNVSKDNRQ

[4] = target: Phosphatidylinositol 4,5-bisphosphate 3-kinase catalytic subunit gamma isoform (Homo sapiens, UniProt P48736); assay: Inhibition of PI3Kgamma (unknown origin) using PIP2 as substrate preincubated for 15 mins followed by substrate addition measured after 60 mins by HTRF method
Sequence of Phosphatidylinositol 4,5-bisphosphate 3-kinase catalytic subunit gamma isoform (P48736 whole entry, canonical isoform): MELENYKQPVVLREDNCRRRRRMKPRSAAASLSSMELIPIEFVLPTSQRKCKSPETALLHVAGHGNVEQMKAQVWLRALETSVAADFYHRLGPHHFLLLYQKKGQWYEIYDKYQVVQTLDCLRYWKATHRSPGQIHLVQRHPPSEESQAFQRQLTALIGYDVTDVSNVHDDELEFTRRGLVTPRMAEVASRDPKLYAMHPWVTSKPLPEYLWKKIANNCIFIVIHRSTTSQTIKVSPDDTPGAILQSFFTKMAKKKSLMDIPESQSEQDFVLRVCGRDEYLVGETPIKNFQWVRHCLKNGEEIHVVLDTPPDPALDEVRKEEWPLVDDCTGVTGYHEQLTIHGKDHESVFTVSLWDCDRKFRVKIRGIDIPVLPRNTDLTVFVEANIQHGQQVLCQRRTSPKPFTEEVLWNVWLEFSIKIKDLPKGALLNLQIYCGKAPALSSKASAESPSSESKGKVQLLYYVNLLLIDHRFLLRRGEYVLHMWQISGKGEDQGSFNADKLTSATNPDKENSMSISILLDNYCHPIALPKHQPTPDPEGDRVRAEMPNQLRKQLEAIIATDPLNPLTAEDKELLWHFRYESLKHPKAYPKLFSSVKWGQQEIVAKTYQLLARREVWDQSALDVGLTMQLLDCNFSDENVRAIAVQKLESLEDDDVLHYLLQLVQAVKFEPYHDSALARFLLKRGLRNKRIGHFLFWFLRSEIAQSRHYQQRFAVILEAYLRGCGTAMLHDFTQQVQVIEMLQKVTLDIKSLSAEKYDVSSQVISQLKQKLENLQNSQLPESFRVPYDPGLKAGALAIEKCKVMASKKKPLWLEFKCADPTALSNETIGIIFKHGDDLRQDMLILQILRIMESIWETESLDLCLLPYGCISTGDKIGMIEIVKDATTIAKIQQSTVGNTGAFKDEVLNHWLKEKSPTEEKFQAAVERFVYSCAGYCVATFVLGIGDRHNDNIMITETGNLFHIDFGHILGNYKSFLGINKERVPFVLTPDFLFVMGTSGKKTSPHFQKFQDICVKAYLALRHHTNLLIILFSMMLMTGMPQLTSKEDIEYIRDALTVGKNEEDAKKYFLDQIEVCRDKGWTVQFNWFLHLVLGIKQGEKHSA

[5] = Clearance in rat microsomes at 0.5 uM in presence of NADPH measured up to 30 mins by LC-MS/MS analysis; type: ADME, Microsome; conditions: 0.5 h
Homo sapiens [6] = organism: Homo sapiens; assay: Selectivity ratio of IC50 for SYK (unknown origin) to IC50 for PI3Kdelta (unknown origin)
Homo sapiens [7] = organism: Homo sapiens; assay: Selectivity ratio of IC50 for IKK1 (unknown origin) to IC50 for PI3Kdelta (unknown origin)
Homo sapiens [8] = organism: Homo sapiens; assay: Selectivity ratio of IC50 for Aurora B (unknown origin) to IC50 for PI3Kdelta (unknown origin)
Homo sapiens [9] = organism: Homo sapiens; assay: Selectivity ratio of IC50 for PIK3C3/PIK3R4 (unknown origin) to IC50 for PI3Kdelta (unknown origin)
Homo sapiens [10] = organism: Homo sapiens; assay: Selectivity ratio of IC50 for ITK (unknown origin) to IC50 for PI3Kdelta (unknown origin)
Homo sapiens [11] = organism: Homo sapiens; assay: Selectivity ratio of IC50 for PI3Kalpha (unknown origin) to IC50 for PI3Kdelta (unknown origin)
Homo sapiens [12] = organism: Homo sapiens; assay: Selectivity ratio of IC50 for PIP4K2A (unknown origin) to IC50 for PI3Kdelta (unknown origin)
PBMC = assay: Inhibition of cytostim stimulated IFNgamma production in human PBMC […] by electrochemiluminescence assay; type: functional, cell-based
Homo sapiens [13] = organism: Homo sapiens; assay: Selectivity ratio of IC50 for ASK1 (unknown origin) to IC50 for PI3Kdelta (unknown origin)
[14] = target: Voltage-gated inwardly rectifying potassium channel KCNH2 (Homo sapiens, UniProt Q12809); assay: Inhibition of human ERG expressed in CHO cells after 75 mins by fluorescence polarization assay
Sequence of Voltage-gated inwardly rectifying potassium channel KCNH2 (Q12809 whole entry): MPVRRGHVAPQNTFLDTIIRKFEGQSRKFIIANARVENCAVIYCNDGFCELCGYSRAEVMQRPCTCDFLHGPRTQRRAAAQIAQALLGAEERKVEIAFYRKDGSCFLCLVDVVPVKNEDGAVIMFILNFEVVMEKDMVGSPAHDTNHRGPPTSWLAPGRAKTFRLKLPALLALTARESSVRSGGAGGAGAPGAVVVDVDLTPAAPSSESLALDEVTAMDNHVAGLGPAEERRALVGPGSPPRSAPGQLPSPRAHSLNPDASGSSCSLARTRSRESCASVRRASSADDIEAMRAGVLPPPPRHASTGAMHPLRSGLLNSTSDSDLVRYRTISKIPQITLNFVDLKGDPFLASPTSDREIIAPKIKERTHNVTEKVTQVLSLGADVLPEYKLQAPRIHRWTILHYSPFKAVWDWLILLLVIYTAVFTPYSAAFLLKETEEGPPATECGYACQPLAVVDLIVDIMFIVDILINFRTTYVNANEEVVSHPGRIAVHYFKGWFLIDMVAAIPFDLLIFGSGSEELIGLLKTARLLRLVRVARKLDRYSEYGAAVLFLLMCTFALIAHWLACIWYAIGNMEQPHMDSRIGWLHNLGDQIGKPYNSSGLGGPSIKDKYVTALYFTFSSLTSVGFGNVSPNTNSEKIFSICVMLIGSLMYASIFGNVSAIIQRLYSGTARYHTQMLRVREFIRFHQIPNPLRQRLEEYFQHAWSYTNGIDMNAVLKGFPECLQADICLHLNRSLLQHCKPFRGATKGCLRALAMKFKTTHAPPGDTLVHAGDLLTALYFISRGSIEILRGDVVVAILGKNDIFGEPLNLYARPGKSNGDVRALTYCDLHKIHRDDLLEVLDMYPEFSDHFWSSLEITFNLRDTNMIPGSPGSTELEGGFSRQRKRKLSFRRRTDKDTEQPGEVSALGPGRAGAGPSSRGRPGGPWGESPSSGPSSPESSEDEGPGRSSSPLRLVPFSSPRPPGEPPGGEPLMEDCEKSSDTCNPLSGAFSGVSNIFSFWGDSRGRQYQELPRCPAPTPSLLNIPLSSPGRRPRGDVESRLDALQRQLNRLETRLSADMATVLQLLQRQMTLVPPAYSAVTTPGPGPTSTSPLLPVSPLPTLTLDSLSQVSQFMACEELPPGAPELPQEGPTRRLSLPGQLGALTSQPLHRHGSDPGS

serum albumin = serum albumin (Homo sapiens, UniProt P02768); assay: Binding affinity to human serum albumin by HPLC analysis; type: ADME; conditions: read-out: PB (converted)
Homo sapiens [15] = organism: Homo sapiens; assay: Selectivity ratio of IC50 for EGFR (unknown origin) to IC50 for PI3Kdelta (unknown origin)
Homo sapiens [16] = organism: Homo sapiens; assay: Selectivity ratio of IC50 for DAG gamma (unknown origin) to IC50 for PI3Kdelta (unknown origin)
Homo sapiens [17] = organism: Homo sapiens; assay: Selectivity ratio of IC50 for PI4KB (unknown origin) to IC50 for PI3Kdelta (unknown origin)
Homo sapiens [18] = organism: Homo sapiens; assay: Selectivity ratio of IC50 for SPHK1 (unknown origin) to IC50 for PI3Kdelta (unknown origin)
Homo sapiens [19] = organism: Homo sapiens; assay: Selectivity ratio of IC50 for p38alpha (unknown origin) to IC50 for PI3Kdelta (unknown origin)
Homo sapiens [20] = organism: Homo sapiens; assay: Selectivity ratio of IC50 for DAG zeta (unknown origin) to IC50 for PI3Kdelta (unknown origin)
Homo sapiens [21] = organism: Homo sapiens; assay: Selectivity ratio of IC50 for CHKB (unknown origin) to IC50 for PI3Kdelta (unknown origin)
Homo sapiens [22] = organism: Homo sapiens; assay: Selectivity ratio of IC50 for PI4KA (unknown origin) to IC50 for PI3Kdelta (unknown origin)
Homo sapiens [23] = organism: Homo sapiens; assay: Selectivity ratio of IC50 for DAG beta (unknown origin) to IC50 for PI3Kdelta (unknown origin)
Homo sapiens [24] = organism: Homo sapiens; assay: Selectivity ratio of IC50 for PI3Kgamma (unknown origin) to IC50 for PI3Kdelta (unknown origin)
[25] = Kinetic solubility of the compound in phosphate buffer saline at pH 7.4 after 1 hr by CLND method; type: physicochemical; conditions: phosphate buffered saline, read-out: Kinetic_solubility
[26] = Clearance in human microsomes at 0.5 uM in presence of NADPH measured up to 30 mins by LC-MS/MS analysis; type: ADME, Microsome; conditions: 0.5 h
Homo sapiens [27] = organism: Homo sapiens; assay: Selectivity ratio of IC50 for PIK3C2B (unknown origin) to IC50 for PI3Kdelta (unknown origin)
Homo sapiens [28] = organism: Homo sapiens; assay: Selectivity ratio of IC50 for JAK2 (unknown origin) to IC50 for PI3Kdelta (unknown origin)
Homo sapiens [29] = organism: Homo sapiens; assay: Selectivity ratio of IC50 for DNA-PK (unknown origin) to IC50 for PI3Kdelta (unknown origin)
Homo sapiens [30] = organism: Homo sapiens; assay: Selectivity ratio of IC50 for CHKA (unknown origin) to IC50 for PI3Kdelta (unknown origin)
Homo sapiens [31] = organism: Homo sapiens; assay: Selectivity ratio of IC50 for JAK3 (unknown origin) to IC50 for PI3Kdelta (unknown origin)
Homo sapiens [32] = organism: Homo sapiens; assay: Selectivity ratio of IC50 for IKK2 (unknown origin) to IC50 for PI3Kdelta (unknown origin)
Homo sapiens [33] = organism: Homo sapiens; assay: Selectivity ratio of IC50 for LCK (unknown origin) to IC50 for PI3Kdelta (unknown origin)
Homo sapiens [34] = organism: Homo sapiens; assay: Selectivity ratio of IC50 for mTOR (unknown origin) to IC50 for PI3Kdelta (unknown origin)
Homo sapiens [35] = organism: Homo sapiens; assay: Selectivity ratio of IC50 for ROCK (unknown origin) to IC50 for PI3Kdelta (unknown origin)
Homo sapiens [36] = organism: Homo sapiens; assay: Selectivity ratio of IC50 for SPHK2 (unknown origin) to IC50 for PI3Kdelta (unknown origin)
Homo sapiens [37] = organism: Homo sapiens; assay: Selectivity ratio of IC50 for PI3Kbeta (unknown origin) to IC50 for PI3Kdelta (unknown origin)
Homo sapiens [38] = organism: Homo sapiens; assay: Selectivity ratio of IC50 for LRRK2 (unknown origin) to IC50 for PI3Kdelta (unknown origin)
Homo sapiens [39] = organism: Homo sapiens; assay: Selectivity ratio of IC50 for JNK1 (unknown origin) to IC50 for PI3Kdelta (unknown origin)
Homo sapiens [40] = organism: Homo sapiens; assay: Selectivity ratio of IC50 for BTK (unknown origin) to IC50 for PI3Kdelta (unknown origin)
[41] = target: Tyrosine-protein kinase SYK (Homo sapiens, UniProt P43405); assay: Inhibition of SYK (unknown origin)
[42] = target: Tyrosine-protein kinase BTK (Homo sapiens, UniProt Q06187); assay: Inhibition of BTK (unknown origin)
Aurora kinase B = Aurora kinase B (Homo sapiens, UniProt Q96GD4); assay: Inhibition of Aurora B (unknown origin)
Sequence of Aurora kinase B (Q96GD4 whole entry): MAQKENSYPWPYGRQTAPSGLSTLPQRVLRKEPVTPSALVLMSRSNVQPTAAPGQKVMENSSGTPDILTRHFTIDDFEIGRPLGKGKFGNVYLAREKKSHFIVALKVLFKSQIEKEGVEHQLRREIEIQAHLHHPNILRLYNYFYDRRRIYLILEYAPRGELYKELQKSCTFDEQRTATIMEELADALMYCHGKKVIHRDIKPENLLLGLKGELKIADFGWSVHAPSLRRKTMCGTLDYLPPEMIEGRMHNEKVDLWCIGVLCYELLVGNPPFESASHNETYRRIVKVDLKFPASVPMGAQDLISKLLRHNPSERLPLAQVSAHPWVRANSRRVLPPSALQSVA

[43] = target: Glycogen synthase kinase-3 beta (Homo sapiens, UniProt P49841); assay: Inhibition of GSK3B (unknown origin)
[44] = target: Mitogen-activated protein kinase 14 (Homo sapiens, UniProt Q16539); assay: Inhibition of p38alpha (unknown origin)
Sequence of Mitogen-activated protein kinase 14 (Q16539 whole entry): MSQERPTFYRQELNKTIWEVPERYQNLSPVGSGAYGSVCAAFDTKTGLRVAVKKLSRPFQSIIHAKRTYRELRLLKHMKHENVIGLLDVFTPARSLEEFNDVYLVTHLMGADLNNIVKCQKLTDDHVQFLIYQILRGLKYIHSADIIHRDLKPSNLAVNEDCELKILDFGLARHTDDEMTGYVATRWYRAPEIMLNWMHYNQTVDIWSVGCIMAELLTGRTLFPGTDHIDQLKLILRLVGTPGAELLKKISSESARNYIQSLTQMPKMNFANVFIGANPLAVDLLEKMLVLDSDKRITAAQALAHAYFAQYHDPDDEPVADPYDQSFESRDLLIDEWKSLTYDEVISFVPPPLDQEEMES

[45] = target: Tyrosine-protein kinase JAK3 (Homo sapiens, UniProt P52333); assay: Inhibition of JAK3 (unknown origin)
[46] = target: Leucine-rich repeat serine/threonine-protein kinase 2 (Homo sapiens, UniProt Q5S007); assay: Inhibition of LRRK2 (unknown origin)
[47] = target: Inhibitor of nuclear factor kappa-B kinase subunit beta (Homo sapiens, UniProt O14920); assay: Inhibition of IKK2 (unknown origin)
[48] = target: Tyrosine-protein kinase Lck (Homo sapiens, UniProt P06239); assay: Inhibition of LCK (unknown origin)
[49] = target: Tyrosine-protein kinase ITK/TSK (Homo sapiens, UniProt Q08881); assay: Inhibition of ITK (unknown origin)
[50] = target: Epidermal growth factor receptor (Homo sapiens, UniProt P00533); assay: Inhibition of EGFR (unknown origin)
[51] = target: Rho-associated protein kinase 1 (Homo sapiens, UniProt Q13464); assay: Inhibition of ROCK1 (unknown origin)
[52] = target: Inhibitor of nuclear factor kappa-B kinase subunit alpha (Homo sapiens, UniProt O15111); assay: Inhibition of IKK1 (unknown origin)
[53] = target: Mitogen-activated protein kinase kinase kinase 5 (Homo sapiens, UniProt Q99683); assay: Inhibition of ASK1 (unknown origin)
[54] = target: Tyrosine-protein kinase JAK2 (Homo sapiens, UniProt O60674); assay: Inhibition of JAK2 (unknown origin)
[55] = target: Mitogen-activated protein kinase 10 (Homo sapiens, UniProt P53779); assay: Inhibition of JNK3 (unknown origin)

IC50 [1]: 15.8 µM
IC50 [2]: > 31.6 µM
IC50 [3]: 3.98 µM
IC50 [4]: 15.8 µM
Compound: c1cc(-c2ccc3ccncc3c2)c2cc[nH]c2c1

clearance [5]: 17.4 mL/min/g
Ratio IC50 (Homo sapiens [6]): > 100
Ratio IC50 (Homo sapiens [7]): > 100
Ratio IC50 (Homo sapiens [8]): > 100
Ratio IC50 (Homo sapiens [9]): > 100
Ratio IC50 (Homo sapiens [10]): > 100
Ratio IC50 (Homo sapiens [11]): > 100
Ratio IC50 (Homo sapiens [12]): > 100
Ratio IC50 (Homo sapiens [13]): > 100
fraction unbound (serum albumin): 0.101
Ratio IC50 (Homo sapiens [15]): > 100
Ratio IC50 (Homo sapiens [16]): > 100
Ratio IC50 (Homo sapiens [17]): > 100
Ratio IC50 (Homo sapiens [18]): > 100
Ratio IC50 (Homo sapiens [19]): > 100
IC50 [1]: 1 µM
IC50 [2]: 0.631 µM
Ratio IC50 (Homo sapiens [20]): > 100
Ratio IC50 (Homo sapiens [21]): > 100
Ratio IC50 (Homo sapiens [22]): > 100
Ratio IC50 (Homo sapiens [23]): > 100
Ratio IC50 (Homo sapiens [24]): > 100
solubility kinetic at 1 h [25]: 12 µg/mL (≈ 27.2 µM)
clearance [26]: 7.9 mL/min/g
Ratio IC50 (Homo sapiens [27]): > 100
Ratio IC50 (Homo sapiens [28]): > 100
Ratio IC50 (Homo sapiens [29]): > 100
Ratio IC50 (Homo sapiens [30]): > 100
Ratio IC50 (Homo sapiens [31]): > 100
Ratio IC50 (Homo sapiens [32]): > 100
Ratio IC50 (Homo sapiens [33]): > 100
Ratio IC50 (Homo sapiens [34]): > 100
IC50 [3]: 0.00631 µM
Ratio IC50 (Homo sapiens [35]): > 100
Ratio IC50 (Homo sapiens [36]): > 100
Ratio IC50 (Homo sapiens [37]): > 100
IC50 [4]: 1 µM
Ratio IC50 (Homo sapiens [38]): > 100
Ratio IC50 (Homo sapiens [39]): > 100
Ratio IC50 (Homo sapiens [40]): > 100
Compound: COc1ncc(C2=CCOCC2)cc1NS(=O)(=O)c1cn(Cc2ccccc2)c(C)n1
IC50 (PBMC): 0.0501 µM
IC50 [14]: > 50.1 µM

IC50 [41]: > 10 µM
IC50 [42]: > 10 µM
IC50 [1]: 0.794 µM
IC50 (Aurora kinase B): > 10 µM
IC50 [43]: > 10 µM
IC50 [2]: 6.31 µM
IC50 [44]: > 10 µM
IC50 [45]: > 10 µM
IC50 [46]: > 10 µM
IC50 [47]: > 10 µM
IC50 [48]: > 10 µM
IC50 [49]: > 10 µM
IC50 [50]: > 10 µM
IC50 [51]: > 10 µM
IC50 [52]: > 10 µM
IC50 [3]: 0.251 µM
IC50 [53]: > 10 µM
IC50 [54]: > 10 µM
IC50 [4]: 3.98 µM
IC50 [55]: > 10 µM
Compound: CS(=O)(=O)Nc1cc(-c2ccncc2)cnc1Cl
